Test results: patent US20250313548A1 (Actio Biosciences, Inc., priority 2023, published 2025)

Molecular target: human, KCNT1 (Homo sapiens (Human), UniProt Q5JUK3)
Test: FLIPR Tl/K Flux Assay
Assay type: cell-based
Settings: HEK293 cells stably expressing human KCNT1; Tl+ flux stimulated with EC80 of agonist Loxapine
Method in brief: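 Inhibition values come from a Hill-equation fit of % inhibition versus log concentration, using normalized fluorescence (Fmax/Fmin) over a 160 s read. The read followed stimulation with Tl+ plus EC80 agonist loxapine after 30 min compound pre-incubation at 25 °C. Cells were KCNT1-expressing HEK293, dye-loaded 1 h in pH 7.4 HEPES/HBSS with 5 mM probenecid.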

human, KCNT1, sequence (Q5JUK3 whole entry): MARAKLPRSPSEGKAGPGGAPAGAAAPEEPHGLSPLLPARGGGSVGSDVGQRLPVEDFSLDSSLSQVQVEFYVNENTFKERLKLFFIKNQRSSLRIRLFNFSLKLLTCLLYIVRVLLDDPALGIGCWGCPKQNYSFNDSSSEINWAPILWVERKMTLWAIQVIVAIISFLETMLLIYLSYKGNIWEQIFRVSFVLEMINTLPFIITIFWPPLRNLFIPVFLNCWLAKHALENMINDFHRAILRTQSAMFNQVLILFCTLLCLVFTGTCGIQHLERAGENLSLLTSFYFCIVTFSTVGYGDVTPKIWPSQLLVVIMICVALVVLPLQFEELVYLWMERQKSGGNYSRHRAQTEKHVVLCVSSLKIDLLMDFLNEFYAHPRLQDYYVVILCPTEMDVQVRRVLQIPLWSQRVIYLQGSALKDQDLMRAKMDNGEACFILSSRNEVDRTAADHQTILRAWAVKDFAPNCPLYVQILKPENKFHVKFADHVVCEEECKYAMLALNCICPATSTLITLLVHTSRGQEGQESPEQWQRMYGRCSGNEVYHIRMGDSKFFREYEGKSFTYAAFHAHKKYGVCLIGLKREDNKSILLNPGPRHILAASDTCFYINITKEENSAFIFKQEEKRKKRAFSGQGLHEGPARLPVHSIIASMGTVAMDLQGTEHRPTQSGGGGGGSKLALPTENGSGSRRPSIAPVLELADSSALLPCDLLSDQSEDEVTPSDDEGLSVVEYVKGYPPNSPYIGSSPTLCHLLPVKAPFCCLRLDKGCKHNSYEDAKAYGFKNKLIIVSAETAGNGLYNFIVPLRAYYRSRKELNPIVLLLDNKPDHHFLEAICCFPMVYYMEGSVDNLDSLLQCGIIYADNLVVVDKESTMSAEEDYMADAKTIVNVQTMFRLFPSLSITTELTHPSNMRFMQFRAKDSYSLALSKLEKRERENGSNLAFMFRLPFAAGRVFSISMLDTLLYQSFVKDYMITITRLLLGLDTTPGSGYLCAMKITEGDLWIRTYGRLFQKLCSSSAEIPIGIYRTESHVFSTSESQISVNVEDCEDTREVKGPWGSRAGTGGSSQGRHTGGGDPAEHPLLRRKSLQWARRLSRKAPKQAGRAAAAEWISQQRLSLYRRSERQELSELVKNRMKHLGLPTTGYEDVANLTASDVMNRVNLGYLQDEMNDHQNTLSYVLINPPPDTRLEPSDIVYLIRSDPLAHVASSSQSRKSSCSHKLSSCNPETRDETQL

SMILES	IC50
Cc1nc(C(F)(F)F)oc1C(=O)N[C@H]1CCc2cnc(-c3ccnc(C(F)(F)F)c3)cc21 [Compound I-192a, (S)-4-Methyl-2-(trifluoromethyl)-N-(3-(2-(trifluoromethyl)pyridin-4-yl)-6,7-dihydro-5H-cyclopenta[c]pyridin-5-yl)oxazole-5-carboxamide]	250 to 500 nM
COc1cc(C(=O)N[C@H]2CCc3cnc(-c4ccnc(C(F)(F)F)c4)cc32)ccn1 [Compound I-196a, (S)-2-Methoxy-N-(3-(2-(trifluoromethyl)pyridin-4-yl)-6,7-dihydro-5H-cyclopenta[c]pyridin-5-yl)isonicotinamide]	500 to 1000 nM
O=C(N[C@H]1CCc2cnc(-c3ccnc(C(F)(F)F)c3)cc21)c1cncc(C(F)(F)F)n1 [Compound I-197a, (S)-6-(trifluoromethyl)-N-(3-(2-(trifluoromethyl)pyridin-4-yl)-6,7-dihydro-5H-cyclopenta[c]pyridin-5-yl)pyrazine-2-carboxamide]	> 1000 nM
Cn1nc(C(F)(F)F)nc1C(=O)N[C@H]1CCCn2nc(-c3cc(C(F)(F)F)ncc3F)cc21 [Compound I-203a, (S)-N-(2-(5-Fluoro-2-(trifluoromethyl)pyridin-4-yl)-4,5,6,7-tetrahydropyrazolo[1,5-a]pyridin-4-yl)-1-methyl-3-(trifluoromethyl)-1H-1,2,4-triazole-5-carboxamide]	< 250 nM
O=C(N[C@H]1CCCn2nc(-c3cc(C(F)(F)F)ncc3F)cc21)c1cncc(C(F)(F)F)n1 [Compound I-204a, (S)-N-(2-(5-Fluoro-2-(trifluoromethyl)pyridin-4-yl)-4,5,6,7-tetrahydropyrazolo[1,5-a]pyridin-4-yl)-6-(trifluoromethyl)pyrazine-2-carboxamide]	< 250 nM
Cn1nc(C(F)(F)F)nc1C(=O)N[C@H]1CCn2nc(-c3ccnc(C4CC4)c3)cc21 [Compound I-205a, (S)-N-(2-(2-Cyclopropylpyridin-4-yl)-5,6-dihydro-4H-pyrrolo[1,2-b]pyrazol-4-yl)-1-methyl-3-(trifluoromethyl)-1H-1,2,4-triazole-5-carboxamide]	< 250 nM
Cc1nc(C(=O)N[C@H]2CCn3nc(-c4ccnc(C(C)(F)F)c4)cc32)n(C)n1 [Compound I-206a, (S)-N-(2-(2-(1,1-Difluoroethyl)pyridin-4-yl)-5,6-dihydro-4H-pyrrolo[1,2-b]pyrazol-4-yl)-1,3-dimethyl-1H-1,2,4-triazole-5-carboxamide]	> 1000 nM
COc1cncc(C(=O)N[C@H]2CCn3nc(-c4ccnc(C(F)(F)F)c4)cc32)n1 [Compound I-207a, (S)-6-Methoxy-N-(2-(2-(trifluoromethyl)pyridin-4-yl)-5,6-dihydro-4H-pyrrolo[1,2-b]pyrazol-4-yl)pyrazine-2-carboxamide]	< 250 nM
O=C(N[C@H]1CCCc2oc(-c3cc(C4CC4)ncc3F)nc21)c1cncc(C(F)(F)F)n1 [Compound I-208a, (S)-N-(2-(2-Cyclopropyl-5-fluoropyridin-4-yl)-4,5,6,7-tetrahydrobenzo[d]oxazol-4-yl)-6-(trifluoromethyl)pyrazine-2-carboxamide]	< 250 nM
Cn1nc(C(F)(F)F)cc1C(=O)N[C@H]1CCCn2nc(-c3cc(C(F)(F)F)ncc3F)cc21 [Compound I-209a, (S)-N-(2-(5-Fluoro-2-(trifluoromethyl)pyridin-4-yl)-4,5,6,7-tetrahydropyrazolo[1,5-a]pyridin-4-yl)-1-methyl-3-(trifluoromethyl)-1H-pyrazole-5-carboxamide]	< 250 nM
COc1nc(C(=O)N[C@H]2CCn3nc(-c4ccnc(C(F)(F)F)c4)cc32)n(C)n1 [Compound I-210a, (S)-3-Methoxy-1-methyl-N-(2-(2-(trifluoromethyl)pyridin-4-yl)-5,6-dihydro-4H-pyrrolo[1,2-b]pyrazol-4-yl)-1H-1,2,4-triazole-5-carboxamide]	< 250 nM
COc1cc(-c2nc3c(o2)CCC[C@@H]3NC(=O)c2cncc(C(F)(F)F)n2)ccn1 [Compound I-211a, (S)-N-(2-(2-Methoxypyridin-4-yl)-4,5,6,7-tetrahydrobenzo[d]oxazol-4-yl)-6-(trifluoromethyl)pyrazine-2-carboxamide]	< 250 nM
COc1cc(-c2cc3n(n2)CCCC[C@@H]3NC(=O)c2cc(C(F)(F)F)nn2C)c(F)cn1 [Compound I-212a, (S)-N-(2-(5-Fluoro-2-methoxypyridin-4-yl)-5,6,7,8-tetrahydro-4H-pyrazolo[1,5-a]azepin-4-yl)-1-methyl-3-(trifluoromethyl)-1H-pyrazole-5-carboxamide]	< 250 nM
O=C(N[C@H]1CCCn2nc(-c3ccnc(C(F)(F)F)c3)cc21)c1ccnc(OC(F)(F)F)c1 [Compound I-213a, (S)-2-(Trifluoromethoxy)-N-(2-(2-(trifluoromethyl)pyridin-4-yl)-4,5,6,7-tetrahydropyrazolo[1,5-a]pyridin-4-yl)isonicotinamide]	< 250 nM
COc1cc(C(=O)N[C@H]2CCCn3nc(-c4ccnc(C(F)(F)F)c4)nc32)ccn1 [Compound I-214a, (S)-2-Methoxy-N-(2-(2-(trifluoromethyl)pyridin-4-yl)-5,6,7,8-tetrahydro-[1,2,4]triazolo[1,5-a]pyridin-8-yl)isonicotinamide]	< 250 nM
O=C(N[C@H]1CCCn2nc(-c3ccnc(C(F)(F)F)c3)nc21)c1cncc(C(F)(F)F)n1 [Compound I-215a, (S)-6-(Trifluoromethyl)-N-(2-(2-(trifluoromethyl)pyridin-4-yl)-5,6,7,8-tetrahydro-[1,2,4]triazolo[1,5-a]pyridin-8-yl)pyrazine-2-carboxamide]	< 250 nM
Cc1nc(C(F)(F)F)oc1C(=O)N[C@H]1CCCn2nc(-c3ccnc(C(F)(F)F)c3)nc21 [Compound I-216a, (S)-4-Methyl-2-(trifluoromethyl)-N-(2-(2-(trifluoromethyl)pyridin-4-yl)-5,6,7,8-tetrahydro-[1,2,4]triazolo[1,5-a]pyridin-8-yl)oxazole-5-carboxamide]	< 250 nM

Results, then the molecule that gave them:

IC50	SMILES
< 250 nM	O=C(N[C@H]1CCCc2nc(-c3ccnc(C(F)(F)F)c3)oc21)c1cccc(C(F)(F)F)c1 [Compound I-188a, (S)-3-(Trifluoromethyl)-N-(2-(2-(trifluoromethyl)pyridin-4-yl)-4,5,6,7-tetrahydrobenzo[d]oxazol-7-yl)benzamide]
< 250 nM	Cn1nc(C(F)(F)F)cc1C(=O)N[C@H]1CCCc2oc(-c3cc(C(F)(F)F)ncc3Cl)nc21 [Compound I-189a]
< 250 nM	Cn1nc(C(F)(F)F)cc1C(=O)N[C@H]1CCc2nn(-c3cc(C4CC4)ncc3F)cc21 [Compound I-190a, (S)-N-(2-(2-Cyclopropyl-5-fluoropyridin-4-yl)-2,4,5,6-tetrahydrocyclopenta[c]pyrazol-4-yl)-1-methyl-3-(trifluoromethyl)-1H-pyrazole-5-carboxamide]
< 250 nM	Cn1nc(C(F)(F)F)nc1C(=O)N[C@H]1CCCc2oc(-c3cc(C4CC4)ncc3F)nc21 [Compound I-191a, (S)—N-(2-(2-Cyclopropyl-5-fluoropyridin-4-yl)-4,5,6,7-tetrahydrobenzo[d]oxazol-4-yl)-1-methyl-3-(trifluoromethyl)-1H-1,2,4-triazole-5-carboxamide]
< 250 nM	O=C(N[C@H]1CCCn2nc(-c3ccnc(C4CC4)c3)cc21)c1ccnc(OC(F)(F)F)c1 [Compound I-193a, (S)-N-(2-(2-Cyclopropylpyridin-4-yl)-4,5,6,7-tetrahydropyrazolo[1,5-a]pyridin-4-yl)-2-(trifluoromethoxy)isonicotinamide]
< 250 nM	COc1cc(C(=O)N[C@H]2CCCCn3nc(-c4cc(C(F)(F)F)ncc4F)cc32)ccn1 [Compound I-194a, (S)-N-(2-(5-Fluoro-2-(trifluoromethyl)pyridin-4-yl)-5,6,7,8-tetrahydro-4H-pyrazolo[1,5-a]azepin-4-yl)-2-methoxyisonicotinamide]
< 250 nM	O=C(N[C@H]1CCCn2nc(-c3cc(C(F)(F)F)ncc3F)cc21)c1cnc2ccccc2n1 [Compound I-195a, (S)-N-(2-(5-Fluoro-2-(trifluoromethyl)pyridin-4-yl)-4,5,6,7-tetrahydropyrazolo[1,5-a]pyridin-4-yl)quinoxaline-2-carboxamide]
< 250 nM	O=C(N[C@H]1CCn2nc(-c3ccnc(C(F)(F)F)c3)cc21)c1ccnc(OC(F)(F)F)c1 [Compound I-198a, (S)-2-(Trifluoromethoxy)-N-(2-(2-(trifluoromethyl)pyridin-4-yl)-5,6-dihydro-4H-pyrrolo[1,2-b]pyrazol-4-yl)isonicotinamide]
< 250 nM	O=C(N[C@H]1CCCn2nc(-c3cc(C(F)(F)F)ncc3F)cc21)c1ccnc(OC(F)(F)F)c1 [Compound I-199a, (S)-N-(2-(5-Fluoro-2-(trifluoromethyl)pyridin-4-yl)-4,5,6,7-tetrahydropyrazolo[1,5-a]pyridin-4-yl)-2-(trifluoromethoxy)isonicotinamide]
< 250 nM	CCc1cc(C#N)cc(C(=O)N[C@H]2CCn3nc(-c4ccnc(C(F)(F)F)c4)cc32)c1 [Compound I-200a, (S)-3-Cyano-5-ethyl-N-(2-(2-(trifluoromethyl)pyridin-4-yl)-5,6-dihydro-4H-pyrrolo[1,2-b]pyrazol-4-yl)benzamide]
< 250 nM	Cn1nc(C(F)(F)F)cc1C(=O)N[C@H]1CCCn2nc(-c3ccnc(C4CC4)c3)nc21 [Compound I-201a, (S)—N-(2-(2-Cyclopropylpyridin-4-yl)-5,6,7,8-tetrahydro-[1,2,4]triazolo[1,5-a]pyridin-8-yl)-1-methyl-3-(trifluoromethyl)-1H-pyrazole-5-carboxamide]
< 250 nM	O=C(N[C@H]1CCCn2nc(-c3cc(C(F)(F)F)ncc3F)cc21)c1cnc(C(F)(F)F)cn1 [Compound I-202a, (S)-N-(2-(5-Fluoro-2-(trifluoromethyl)pyridin-4-yl)-4,5,6,7-tetrahydropyrazolo[1,5-a]pyridin-4-yl)-5-(trifluoromethyl)pyrazine-2-carboxamide]
